Laboratory results published in ChEMBL document CHEMBL1158301, “Isolation of guaianoid pigments from the gorgonian Calicogorgia granulosa” (1996).

Legend:
Type in all cases: functional
Conditions in all cases: read-out: IZ
Bacillus subtilis = test: Antimicrobial activity against Bacillus subtilis at 25 ug/mL by paper disk assay
Candida albicans = test: Antimicrobial activity against Candida albicans at 25 ug/mL by paper disk assay
Escherichia coli = test: Antimicrobial activity against Escherichia coli at 25 ug/mL by paper disk assay

| SMILES | zone of inhibition at 25 µg/mL (Bacillus subtilis) [mm] | zone of inhibition at 25 µg/mL (Candida albicans) [mm] | zone of inhibition at 25 µg/mL (Escherichia coli) [mm] |
| --- | --- | --- | --- |
| Cc1cc(-c2cc(C)c3cc(C(C)C)ccc(C)c2-3)c2c(C)ccc(C(C)C)cc1-2 | 8 | 5 | 3 |
| Cc1cc(Cc2cc(C)c3cc(C(C)C)ccc(C)c2-3)c2c(C)ccc(C(C)C)cc1-2 | 3 |  | 3 |
